Results: ChEMBL document CHEMBL1157225, “Highly N-methylated linear peptides produced by an atypical sponge-derived Acremonium sp” (2006)
Values after ≈ are worked out from the molar mass of the structure shown. Where a SMILES comes first, the peptide text is derived from it. [ ]: non-standard residue; d: D form. The star is where a group is joined. X1 = CC(C)C[C@@H](C[N+]1=C2CCCN2CCC1)N*; Pip = O=C(O)[C@@H]1CCCCN1; Iva = CC[C@](C)(N)C(=O)O; Aib = CC(C)(N)C(=O)O; βAla = NCCC(=O)O

Assays:
[1] = system: Staphylococcus epidermidis; assay: Antimicrobial activity against Staphylococcus epidermidis; type: functional
[2] = system: L1210; assay: Cytotoxicity against mouse L1210 cells relative to efrapeptin G; type: functional
[3] = Staphylococcus epidermidis, read-out: MIC

SMILES	MIC [1, 3]	Activity [2]	MIC [1]
CC[C@H](C)[C@H](NC(=O)[C@H](C(C)C)N(C)C(=O)[C@H](CC(C)C)N(C)C(=O)[C@@H](NC(=O)[C@@H](CCC(N)=O)NC(C)=O)C(C)C)C(=O)N(C)[C@H](C(=O)N(C)[C@H](C(=O)N(C)[C@H](C(=O)O)[C@@H](C)CC)[C@@H](C)CC)[C@@H](C)CC	> 400 µg/mL	1	–
CN[C@H](CC(C)C)C(=O)N[C@H]1C(=O)N[C@@H](CC(N)=O)C(=O)N[C@H]2C(=O)N[C@H]3C(=O)N[C@H](C(=O)N[C@H](C(=O)O)c4cc(O)cc(O)c4-c4cc3ccc4O)[C@H](O)c3ccc(c(Cl)c3)Oc3cc2cc(c3O[C@@H]2O[C@H](CO)[C@@H](O)[C@H](O)[C@H]2O[C@H]2C[C@](C)(N)[C@H](O)[C@H](C)O2)Oc2ccc(cc2Cl)[C@H]1O [VANCOMYCIN]	0.63 µg/mL (≈ 0.435 µM)	–	–
CC[C@](C)(NC(=O)[C@H](CC(C)C)NC(=O)[C@H](C)NC(=O)C(C)(C)NC(=O)[C@@H]1CCCCN1C(=O)C(C)(C)NC(=O)C(C)(C)NC(=O)CNC(=O)CCNC(=O)[C@H](CC(C)C)NC(=O)C(C)(C)NC(=O)[C@](C)(CC)NC(=O)[C@@H]1CCCCN1C(=O)C(C)(C)NC(=O)[C@@H]1CCCCN1C(C)=O)C(=O)N[C@@H](CC(C)C)C[N+]1=C2CCCN2CCC1 [EFRAPEPTIN G] (Ac-[Pip][Aib][Pip][Iva][Aib]L[βAla]G[Aib][Aib][Pip][Aib]AL[Iva]-X1)	80 µg/mL	3300	–
CC[C@H](C)[C@H](NC(=O)[C@H](CC(C)C)N(C)C(=O)[C@@H](NC(=O)[C@@H](CCC(N)=O)NC(C)=O)[C@@H](C)CC)C(=O)N(C)[C@H](C(=O)N(C)[C@H](C(=O)N(C)[C@H](C(=O)N(C)[C@H](C(=O)O)[C@@H](C)CC)[C@@H](C)CC)[C@@H](C)CC)C(C)C	25 µg/mL (≈ 24.1 µM)	–	50 µg/mL (≈ 48.2 µM)
